In patent US8598348B2, “Purification of 1-[2-(2,4-dimethylphenylsulfanyl)phenyl]piperazine” (H. Lundbeck A/S, priority 2009, dated 2013):
Where a name gives a salt, the structure may show the parent alone.

Columns and labels:
[1] = judged from DSC and solubility data; as shown in WO 2007/144005; cited from earlier work
Solubility in water = assay type: physicochemical
[2] = Water absorption when exposed to high relative humidity; assay type: physicochemical

solubility (Solubility in water): 1200 µg/mL | absorption of water when exposed to high relative humidity [2]: about 0.6%
SMILES: Cc1ccc(Sc2ccccc2N2CCNCC2)c(C)c1 [beta form of the hydrobromide, 1-[2-(2,4-dimethylphenylsulfanyl)phenyl]piperazine-HBr]
stability among the α-, β- and γ-forms of the HBr salt [1]: most stable form
